Results from paper PMC11355573, “A New Renieramycin T Right-Half Analog as a Small Molecule Degrader of STAT3” (Marine Drugs, 2024).
Where two headings read alike, the source gives them in different places.

Assays:
Type in all cases: cell-based
[1] = biological target: T1, STAT3 (Homo sapiens, UniProt P40763); assay: STAT3 proteasomal degradation, Western blot with or without MG132; conditions: H460, 1 and 2.5 µM, 6 h, without MG132 (p < 0.05)
T1 construct: endogenous in cells; host or cells: NCI-H460 (ATCC HTB-177)
T1 sequence (P40763 whole entry): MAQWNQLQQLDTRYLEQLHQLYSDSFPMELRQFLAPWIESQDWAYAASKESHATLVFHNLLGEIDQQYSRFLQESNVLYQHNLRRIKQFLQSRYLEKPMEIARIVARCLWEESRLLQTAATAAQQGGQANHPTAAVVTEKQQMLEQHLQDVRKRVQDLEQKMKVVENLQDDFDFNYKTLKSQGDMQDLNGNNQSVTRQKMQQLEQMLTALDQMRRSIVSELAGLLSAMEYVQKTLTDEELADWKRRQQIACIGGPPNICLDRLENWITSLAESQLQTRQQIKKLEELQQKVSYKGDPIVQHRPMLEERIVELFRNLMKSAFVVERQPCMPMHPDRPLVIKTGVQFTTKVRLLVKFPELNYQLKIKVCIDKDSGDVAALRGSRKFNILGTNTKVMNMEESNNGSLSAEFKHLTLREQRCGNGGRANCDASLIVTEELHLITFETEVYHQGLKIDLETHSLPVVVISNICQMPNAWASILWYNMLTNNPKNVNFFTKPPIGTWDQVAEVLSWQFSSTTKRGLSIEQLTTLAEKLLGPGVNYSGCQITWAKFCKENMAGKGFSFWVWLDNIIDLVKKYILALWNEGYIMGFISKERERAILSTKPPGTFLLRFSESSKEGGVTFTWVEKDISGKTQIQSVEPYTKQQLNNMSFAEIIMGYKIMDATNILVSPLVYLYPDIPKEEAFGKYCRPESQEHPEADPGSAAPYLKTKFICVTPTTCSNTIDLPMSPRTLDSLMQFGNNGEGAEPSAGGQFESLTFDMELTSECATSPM
Procedure: To explore whether the reduction in total STAT3 protein after DH_31 treatments (as shown in Figure 5B–E) occurs at the mRNA or protein levels, we first investigated mRNA levels using Real-time qPCR. […] To evaluate whether DH_31 affects STAT3 stability, pretreatment with MG132, a potent selective proteasome inhibitor, was performed. H460 cells were pretreated with or without MG132 (10 μM) for 1 h and then cells were either treated with DH_31 for 6 h or left untreated. […] The proteasome can recognize and degrade protein targets that are conjugated by single or poly-ubiquitin molecules. To investigate the ubiquitination level of STAT3 with DH_31 treatments, the ubiquitination level was evaluated using immunoprecipitation and Western blot analysis of the STAT3–ubiquitin complex in the lung cancer cells treated with DH_31 and in untreated cells.
Immunoprecipitation assay was performed to investigate ubiquitin–proteasomal degradation, shedding light on the regulatory mechanisms involved. H460 cells (4.0 × 10^5 cells per well) were seeded in 6-well plates. Following overnight incubation, the cells were pretreated with 10 μM of a proteasome inhibitor, MG132, for 1 h to prevent proteasomal degradation, and then were treated with different concentrations of DH_31 (0–2.5 μM) for 6 h. After treatment, the cells were lysed as described above. Immunoprecipitation was carried out using the Dynabeads™ Protein G Immunoprecipitation kit, following the manufacturers’ protocols. The magnetic beads were coated with the rabbit anti-STAT3, then incubated with whole-cell lysate and mixed gently overnight at 4 °C. After washing, the supernatant containing the antibody–antigen complex was used to perform Western blot analysis to detect the ubiquitinated STAT3 protein.

[2] = tested on: H292 cells; conditions: for apoptosis: 24 h
Procedure: (§1) Apoptosis is a crucial mechanism of cell death induced by anticancer drugs. We further analyzed the apoptosis induction effect of the potent small molecules, namely DH_28, DH_30, and DH_31. Nuclear morphology detected by the staining with nucleus-specific fluorescence dye Hoechst 33342 and cell-impermeable PI for necrotic detection was performed. Morphologic changes by means of condensed and/or fragmented nuclei were observed after 24 h of treatment (Figure 2D). […] Therefore, DH_31 was selected for further experiments.
(§2) Figure 2 The effect of RT right-half analogs on cytotoxicity in NSCLC and human normal lung epithelial (BEAS-2B) cell lines and apoptotic cell death in NSCLC cells. (A) NSCLC H292 and H460 cells were treated with derivatives of RT right-half analogs for 24 h and analyzed using MTT assay to assess cytotoxicity. (B) IC50 values for H292 and H460 cell lines were calculated. (C) BEAS-2B cells were treated with DH_28, DH_30, DH_31, and TM-(−)-18 for 24 h. The cytotoxic effects were evaluated using an MTT assay, and the IC50 values for BEAS-2B cells were determined. (D) H292 and H460 cells were seeded and treated with 0–10 μM of DH_28, DH_30, and DH_31 for 24 h. Hoechst 33342 and PI were used to stain the cell nuclei. Images were obtained under a fluorescence microscope. (E) The percentages of cell death were calculated based on the stained images in H292 and H460 cells. Data represent the mean ± SD (n = 3). *, **, and *** indicate a statistically significant difference between the treated and the untreated cells at p < 0.05, p < 0.01, and p < 0.001, respectively. TEXT PRINTED IN THE PICTURE: (B) DH_17: IC50 ± SD (μM) H292: 20.50 ± 3.69; IC50 ± SD (μM) H460: > 100 | (B) DH_20: IC50 ± SD (μM) H292: 21.46 ± 3.77; IC50 ± SD (μM) H460: > 100 | (B) DH_23: IC50 ± SD (μM) H292: 17.50 ± 3.08; IC50 ± SD (μM) H460: > 100 | (B) DH_26: IC50 ± SD (μM) H292: 7.18 ± 2.39; IC50 ± SD (μM) H460: > 100 | (B) DH_28: IC50 ± SD (μM) H292: 9.56 ± 1.87; IC50 ± SD (μM) H460: 11.48 ± 1.87 | (B) DH_30: IC50 ± SD (μM) H292: 7.80 ± 2.30; IC50 ± SD (μM) H460: 4.51 ± 0.78 | (B) DH_31: IC50 ± SD (μM) H292: 5.54 ± 1.04; IC50 ± SD (μM) H460: 2.90 ± 0.58 | (B) TM-(–)-18: IC50 ± SD (μM) H292: > 100; IC50 ± SD (μM) H460: 7.89 ± 1.27 | (C) DH_28: BEAS-2B IC50 ± SD (μM): 16.46 ± 2.11 | (C) DH_30: BEAS-2B IC50 ± SD (μM): 5.50 ± 1.70 | (C) DH_31: BEAS-2B IC50 ± SD (μM): 6.51 ± 1.40 | (C) TM-(–)-18: BEAS-2B IC50 ± SD (μM): 7.25 ± 1.25 DOUBTS OF THE COPYIST ABOUT THIS PICTURE: Panel C, DH_28, IC50: small print, 16.46 ± 2.11 is the best reading; 6 could be 8 / Panel C, DH_30, IC50: small print, 5.50 ± 1.70 is the best reading; 5 could be 6 / Panel C, DH_31, IC50: small print, 6.51 ± 1.40 is the best reading; 6 could be 8 or 5 / Panel C, TM-(–)-18, IC50: small print, 7.25 ± 1.25 is the best reading

[3] = tested on: H460 cells; conditions: 24 h
Procedure: as §1, §2

With `COc1c(C)cc2c(c1O)[C@@H]1CN(Cc3ccc4ccccc4c3)[C@@H](C#N)[C@H](C2)N1C` [DH_31, (1R,4R,5S)-10-hydroxy-9-methoxy-8,11-dimethyl-3-(naphthalen-2-ylmethyl)-1,2,3,4,5,6-hexahydro-1,5-epiminobenzo[d]azocine-4-carbonitrile] the “STAT3 protein levels (Western blot)” value [1] was “significantly reduced”, the apoptosis ([2]; H292, 1 µM) was “significant apoptosis” and the apoptosis ([2]; H292, 10 µM) was “significant apoptosis”. The necrosis ([2]; H292, 10 µM, 24 h (p < 0.001)) was “Necrosis was detected”, the necrosis ([3]; H460, 1 µM) was “did not cause significant necrosis” and the apoptotic cell death ([3]; H460, 10 µM) was “significant apoptotic cell death”. The necrosis ([3]; H460, 10 µM) was “did not cause significant necrosis”.
